Measurements reported in US5861269A, “Methods for removing interferences due to endogenous dehydrogenases in enzyme assays” (Dade Behring Marburg GmbH, priority 1996, dated 1999).

Tests used:
[1] = system: endogenous dehydrogenases; assay: Emit Ethyl Alcohol Assay with inhibitor, whole blood samples; type: biochemical; settings: whole blood ethanol samples
Procedure: (§1) The ability of inhibitors to prevent false positive results with samples containing endogenous dehydrogenases was determined by employing the Emit® Ethyl Alcohol Assay available from Syva Company, San Jose, Calif. (Part No. 9K219). The assays were performed on the Cobas Mira-S analyzer (Roche Diagnostics Inc., Nutley, N.J.) according to the manufacturer's instructions using the protocol provided by Syva Company. Briefly, the Emit® Ethyl Alcohol Assay consists of two reagents, Reagent 1 and Reagent 2. Reagent 1 contains Tris buffer, stabilizers and preservatives. Reagent 2 contains alcohol dehydrogenase, nicotinamide adenine dinucleotide (NAD^+), bulking agents, stabilizers, surfactants and preservatives. Reagent 2 is shipped in dry form and is reconstituted according to the manufacturer's instructions. To perform the assay, Reagent 1 and Reagent 2 %ere added to the sample. Following mixing and incubation, the change in absorbance at 340 nm was monitored. The reaction is linear, and calibration was achieved by single point calibration using a 100 mg/dL (0.10%) calibrator, supplied by Syva Company. The calculation of results was not required. The instrument prints the quantitative result.
In the following examples, results reported under the column Current Emit® refer to results observed using the Emit® Ethyl Alcohol assay in the absence of inhibitor. […]

malate dehydrogenase = settings: Bacchi et al., J. Bacteriol. 98(1), 23-28 (1969); cited from earlier work
[2] = system: α-glycerophosphate dehydrogenase; settings: Bacchi et al., J. Bacteriol. 98(1), 23-28 (1969); cited from earlier work
[3] = system: endogenous dehydrogenases; assay: Emit Ethyl Alcohol Assay with inhibitor, serum samples falsely elevated by endogenous dehydrogenases; type: biochemical; settings: inhibitor in Reagent 1
Procedure: as §1, with “(Part” for “The ability of inhibitors to prevent false positive results with samples containing endogenous dehydrogenases was determined by employing the Emit® Ethyl Alcohol Assay available from Syva Company, San Jose, Calif. (Part”
Results reported under the column GC refer to confirmatory results obtained using gas chromatography.
Agaric acid was dissolved in Emit® Ethyl Alcohol Reagent 1 by stirring with heat to a concentration of 25 mM. […] The solution was cooled to room temperature. The pH of the solution was measured and adjusted to the pH of the Emit® Ethyl Alcohol Reagent 1 (pH 9.0) with a small volume of 10N NaOH. […] These discrepant samples were analyzed using the Emit® Ethyl Alcohol Assay side by side with the assay containing agaric acid.

With CCCCCCCCCCCCCCCCC(C(=O)O)C(O)(CC(=O)O)C(=O)O (centres unmarked) [Agaric Acid, Agaric acid] as the compound, how does the “Accuracy of the Emit Ethyl Alcohol Assay versus current Emit product” value [1] read?
The value was “improved accuracy”.

And the “Inhibition of malate dehydrogenase” value (malate dehydrogenase)?
The value was “highly inhibitory”.

And the “Inhibition of α-glycerophosphate dehydrogenase” value [2]?
The value was “highly inhibitory”.

And the “Effect on elevated (false-positive) ethanol results of the Emit Ethyl Alcohol Assay” value (shortened to “Effect on elevated”) [3]?
Its value is “eliminated”.

With CCCCCCCCCCCC(=O)O [Lauric Acid, Lauric acid] as the compound, how does the “Effect on elevated” value [3] read?
Its value is “eliminated”.

Which “Effect on elevated” value [3] does the source give for CCCC/C=C\CCCCCCCC(=O)O [Myristoleic Acid, myristoleic acid] here?
Its value is “eliminated”.

Which “Effect on elevated” value [3] does the source give for CCCCCCCCCCCCOS(=O)(=O)[O-].[Na+] [SDS, sodium dodecyl sulfate] here?
The value was “eliminated”.

Which “Effect on elevated” value [3] does the source give for CCCCCCCCCCOS(=O)(=O)[O-].[Na+] [Sodium Decyl Sulfate, sodium decyl sulfate] here?
The value was “eliminated”.
